Assay results published in patent US5196437A, “Method for treating hepatic diseases and regenerating liver tissue using FK 506 and related compounds” (Fujisawa Pharmaceutical Company, Ltd., priority 1990, dated 1993).

Assays:
midzonal hepatocytes = test: Eck fistula dogs, left portal vein infusion: electron microscopy of hepatocyte organelles; format: in vivo, dog (beagle)
Method: (§1) Twenty adult female beagle dogs underwent Eck fistula (Starzl et al, Lancet, 1976, 1:821-25). After performing a large side to side portacaval shunt, the left and right portal vein branches were ligated. A small infusion catheter was tied into the left branch and led through the abdominal wall and subcutaneously to a battery charged infusion pump that was incorporated into a non-restraining body cast. A constant infusion was started of the control or test fluids at the volume of 20 to 30 ml/day. Oral fluids and diet were allowed ad lib. Four days later, the animals were administered 0.2 mCi/kg (CH3 -^3 H)-thymidine with specific activity of 80-90 Ci/MMol (New England Nuclear, Boston). Two hours later, the dogs were anesthetized and killed.
For studies of the organelles, small cubes of each hepatic sample were taken for electron microscopy. The tissue was post-fixed in glutaraldehyde followed by osmic acid. After embedding in Polarbed. 812 resin, ultrathin sections were cut, stained with lead citrate and examined in a Philip's 300 electron microscope. Measurements of the organelles were made on electron micrographs by Loud's method (Loud, J Cell Biol, 1968, 37:27-46).
(§2) Results are expressed as mean±standard deviation (SD). The Student's t-test was employed in individual experimental groups to compare differences between right and left lobes or between groups. A p value less than 0.05 was considered to be significant.

hepatocytes = test: Eck fistula dogs, left portal vein infusion: hepatocyte size and 3H-thymidine labelled hepatocytes; format: in vivo, dog (beagle); conditions: for Labeled Hepatocytes/1000 Hepatocytes, Left / Hepatocytes Size Units, Left: left (infused) lobe; for Labeled Hepatocytes/1000 Hepatocytes, Left / Hepatocytes Size Units, Left / Hepatocytes Size Units, Right / Labeled Hepatocytes/1000 Hepatocytes, Right: mean +/- SD; for Hepatocytes Size Units, Right / Labeled Hepatocytes/1000 Hepatocytes, Right: right lobe
Method: as §1
Specimens were taken from 2 of the right hepatic lobes and 2 of the left lobes, fixed in 10% buffered formalin, and stained using standard hematoxylin-eosin staining techniques.
Autoradiography was carried out using Ilford K5 nuclear track liquid emulsion and an exposure time of at least 30 days. The number of mitoses, as an index of hepatocyte regeneration, was determined by counting the number of ^3 H-thymidine labelled nuclei per 1000 hepatocytes. […] In normal, unaltered dogs, about 1.6±0.4 mitosis per 1000 hepatocytes are present in the liver, and midzonal hepatocytes are about 0.17±0.01 size-units (Starzl et al, Lancet, 1979, 1:127-130). The exceptional reproducibility of these values and the small standard deviations make it easy to identify changes caused by operations such as Eck fistula, drugs, or other experimental variables.
as §2

[1] = 1.0 mg/kg/day, right lobe, mean +/- SD
[2] = infused into the left portal vein

C=CCC1C=C(C)CC(C)CC(OC)C2OC(O)(C(=O)C(=O)N3CCCCC3C(=O)OC(C(C)=CC3CCC(O)C(OC)C3)C(C)C(O)CC1=O)C(C)CC2OC (centres unmarked) [FK 506]
lipid accumulation in right lobes (midzonal hepatocytes; 1 mg/kg/day, compared to vehicle controls, p<0.001): reduced lipid accumulation | Organelle volume in average midzonal hepatocytes, Lysosomes, Left (midzonal hepatocytes; 1.0 mg/kg/day, left (infused) lobe, mean +/- SD, left vs right p 0.0002): 48.8 +/- 10.9 uM^3 | Organelle volume in average midzonal hepatocytes, Lipids, Left (midzonal hepatocytes; 1.0 mg/kg/day, left (infused) lobe, mean +/- SD, left vs right p 0.0044): 15.6 +/- 2.8 uM^3 | Organelle volume in average midzonal hepatocytes, Microbodies, Left (midzonal hepatocytes; 1.0 mg/kg/day, left (infused) lobe, mean +/- SD, left vs right p 0.1111): 94.2 +/- 10.4 uM^3 | Organelle volume in average midzonal hepatocytes, Mitochondria, Left (midzonal hepatocytes; 1.0 mg/kg/day, left (infused) lobe, mean +/- SD, left vs right p 0.1996): 1284.8 +/- 178.9 uM^3 | Area of rough endoplasmic reticulum per average midzonal hepatocyte, Left (midzonal hepatocytes; 1.0 mg/kg/day, left (infused) lobe, mean +/- SD, p vs vehicle 0.0000, left vs right 0.0002): 32091 +/- 1225 uM^2 | Area of smooth endoplasmic reticulum per average midzonal hepatocyte, Left (midzonal hepatocytes; 1.0 mg/kg/day, left (infused) lobe, mean +/- SD, p vs vehicle 0.0574, left vs right 0.0024): 17876 +/- 642 uM^2 | lysosomes in right lobar hepatocytes (midzonal hepatocytes; 1 mg/kg/day, p<0.05): reduced | microbodies in right lobar hepatocytes (midzonal hepatocytes; 1 mg/kg/day, p=0.07): reduced | Organelle volume in average midzonal hepatocytes, Lipids, Right (midzonal hepatocytes; [1]): 47.8 +/- 11.3 uM^3 | Organelle volume in average midzonal hepatocytes, Lysosomes, Right (midzonal hepatocytes; [1]): 160.0 +/- 23.8 uM^3 | Organelle volume in average midzonal hepatocytes, Microbodies, Right (midzonal hepatocytes; [1]): 136.6 +/- 41.3 uM^3 | Organelle volume in average midzonal hepatocytes, Mitochondria, Right (midzonal hepatocytes; [1]): 1440.6 +/- 318.7 uM^3 | Area of rough endoplasmic reticulum per average midzonal hepatocyte, Right (midzonal hepatocytes; 1.0 mg/kg/day, right lobe, mean +/- SD, p vs vehicle 0.0003): 20839 +/- 1612 uM^2 | Area of smooth endoplasmic reticulum per average midzonal hepatocyte, Right (midzonal hepatocytes; 1.0 mg/kg/day, right lobe, mean +/- SD, p vs vehicle 0.0858): 23154 +/- 193 uM^2 | mitochondria (midzonal hepatocytes; FK 506-infused lobes): neither enlarged (Table V) nor abnormal | number of microbodies, lysosomes and small lipid containing vacuoles (midzonal hepatocytes; FK 506-infused lobes): near normal levels | amount of rough endoplasmic reticulum (midzonal hepatocytes; infused lobes): restored relative to controls | dilatation and disruption of the cisternae (midzonal hepatocytes; infused lobes): minimal | ultrastructure of hepatocytes exposed to infused FK 506 (midzonal hepatocytes; left lobes, even at the smallest doses): almost normal even at the smallest doses | changes in the hepatocytes in the right lobes (midzonal hepatocytes; low doses of FK 506, compared with controls): did not differ greatly from those seen in the controls | Labeled Hepatocytes/1000 Hepatocytes, Left (hepatocytes; 0.01 mg/kg/day, p vs vehicle 0.0044, left vs right 0.0167): 5.43 +/- .35 Labeled Hepatocytes/1000 Hepat | Hepatocytes Size Units, Left (hepatocytes; 0.01 mg/kg/day, p vs vehicle 0.5782, left vs right 0.0004): .111 +/- .008 Size Units | Hepatocytes Size Units, Right (hepatocytes; 0.01 mg/kg/day, p vs vehicle 0.1860): .100 +/- .007 Size Units | Labeled Hepatocytes/1000 Hepatocytes, Right (hepatocytes; 0.01 mg/kg/day, p vs vehicle 0.2477): 4.77 +/- .60 Labeled Hepatocytes/1000 Hepat | Labeled Hepatocytes/1000 Hepatocytes, Left (hepatocytes; 0.1 mg/kg/day, p vs vehicle 0.0005, left vs right 0.0001): 5.98 +/- .43 Labeled Hepatocytes/1000 Hepat | Hepatocytes Size Units, Left (hepatocytes; 0.1 mg/kg/day, p vs vehicle 0.0065, left vs right 0.0000): .137 +/- .008 Size Units | Labeled Hepatocytes/1000 Hepatocytes, Right (hepatocytes; 0.1 mg/kg/day, p vs vehicle 0.0086): 5.19 +/- .38 Labeled Hepatocytes/1000 Hepat | Hepatocytes Size Units, Right (hepatocytes; 0.1 mg/kg/day, p vs vehicle 0.8351): .113 +/- .006 Size Units | Labeled Hepatocytes/1000 Hepatocytes, Left (hepatocytes; 1.0 mg/kg/day, p vs vehicle 0.0001, left vs right 0.0015): 9.13 +/- .89 Labeled Hepatocytes/1000 Hepat | Hepatocytes Size Units, Left (hepatocytes; 1.0 mg/kg/day, p vs vehicle 0.0004, left vs right 0.0009): .162 +/- .012 Size Units | Hepatocytes Size Units, Right (hepatocytes; 1.0 mg/kg/day, p vs vehicle 0.0503): .134 +/- .006 Size Units | Labeled Hepatocytes/1000 Hepatocytes, Right (hepatocytes; 1.0 mg/kg/day, p vs vehicle 0.0510): 5.37 +/- .78 Labeled Hepatocytes/1000 Hepat | changes in directly infused lobes compared with non-infused lobes (hepatocytes; all doses): significantly greater in the directly infused lobes at all doses | changes in non-infused lobes compared to vehicle controls (hepatocytes; high FK 506 doses): significantly effected compared to the vehicle controls | atrophy of the left lobar hepatocytes (hepatocytes; [2]): prevented in proportion to the dose | rate of mitoses (hepatocytes; [2]): increased | evidence of drug toxicity in infused lobes (hepatocytes; lobes infused with FK 506): no evidence of drug toxicity
